Values of other authors, collected in patent US10851274B2, “Coolant mixtures for use in heat-exchange devices in the aerospace field” (Safran Electrical & Power, priority 2016, dated 2020).

Legend:
[1] = known fluids; for FP: water and antigels, criterion ≥23
[2] = known fluids, water and antigels; criterion >500
[3] = known fluids, water and antigels; criterion <100
[4] = for Toxicity: known coolant fluids, water and antigels, criterion: No; for Toxicity (in words): known fluids

SMILES | FP [1] | ΔHvap [2] [kJ/kg] | Tb [3] [°C] | Toxicity [4] | Flammability (in words) [1] | Toxicity (in words) [4]
CCOCC(C)O (stereo not shown) [1-ethoxy-2-propanol] | 42 °C | 308 | 132 | No (a fluid is non-toxic if its oral LD50 is greater than 500 mg/kg) | – | –
COCC(C)O (stereo not shown) [1-methoxy-2-propanol] | 34 °C | 461 | 118 | No (a fluid is non-toxic if its oral LD50 is greater than 500 mg/kg) | – | –
CC(C)=O [Acetone] | −20 °C | 501 | 57 | No (a fluid is non-toxic if its oral LD50 is greater than 500 mg/kg) | highly flammable | –
N [Ammoniac, ammonia] | 132 °C | 1371 | −33 | Yes | – | toxic
O=C=O [Carbon dioxide] | None | 400 | −57 | No (a fluid is non-toxic if its oral LD50 is greater than 500 mg/kg) | – | –
CCO [Ethanol] | 13 °C | 837 | 78 | No (a fluid is non-toxic if its oral LD50 is greater than 500 mg/kg) | highly flammable | –
CCOC(F)(F)C(F)(F)C(F)(F)C(F)(F)F [HFE 3M Novec 7100, ethoxynonafluorobutane] | None | 126 | 76 | No (a fluid is non-toxic if its oral LD50 is greater than 500 mg/kg) | – | –
CO [Methanol] | 11 °C | 1098 | 64 | Yes | highly flammable | –
CC(O)CO (stereo not shown) [Propylene-glycol, propylene glycol] | 107 °C | 736 | 187 | No (a fluid is non-toxic if its oral LD50 is greater than 500 mg/kg) | – | –
O [Water] | None | – | 100 | No (a fluid is non-toxic if its oral LD50 is greater than 500 mg/kg) | fireproof | non-toxic
OCCO [ethylene glycol] | – | – | – | – | – | highly toxic
